Measured values taken from patent publication US20230149516A1, “USE OF PEPTIDYLGLYCINE ALPHA-AMIDATING MONOOXYGENASE (PAM) FOR THERAPEUTIC PURPOSE” (PAM THERAGNOSITICS GMBH, priority 2020, published 2023).

How the values were obtained:
[1] = molecular target: T1, adrenomedullin-Gly (ADM-Gly) (UniProt P35318)
T1 sequence: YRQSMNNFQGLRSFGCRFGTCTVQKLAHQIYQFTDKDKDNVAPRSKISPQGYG

PAM activity = test: Circulating PAM activity in rats after intravenous injection of PAM, ascorbate or both, measured without exogenous ascorbate; format: in vivo, Wistar rats
bio-ADM = test: Circulating bio-ADM concentration in rats after intravenous injection of PAM, ascorbate or both; format: in vivo, Wistar rats
[2] = molecular target: T2, circulating human PAM activity (Homo sapiens, UniProt P19021); test: Amidating activity in healthy human volunteers after oral ascorbate uptake, measured without exogenous ascorbate; format: in vivo; details: 2000 mg oral single dose
T2 construct: Human serum or Li-Heparin plasma from self-reported healthy volunteers was used as source of human native PAM; from tissue; host or cells: Li-heparin plasma and serum of healthy human volunteers
T2 sequence (P19021 31-973): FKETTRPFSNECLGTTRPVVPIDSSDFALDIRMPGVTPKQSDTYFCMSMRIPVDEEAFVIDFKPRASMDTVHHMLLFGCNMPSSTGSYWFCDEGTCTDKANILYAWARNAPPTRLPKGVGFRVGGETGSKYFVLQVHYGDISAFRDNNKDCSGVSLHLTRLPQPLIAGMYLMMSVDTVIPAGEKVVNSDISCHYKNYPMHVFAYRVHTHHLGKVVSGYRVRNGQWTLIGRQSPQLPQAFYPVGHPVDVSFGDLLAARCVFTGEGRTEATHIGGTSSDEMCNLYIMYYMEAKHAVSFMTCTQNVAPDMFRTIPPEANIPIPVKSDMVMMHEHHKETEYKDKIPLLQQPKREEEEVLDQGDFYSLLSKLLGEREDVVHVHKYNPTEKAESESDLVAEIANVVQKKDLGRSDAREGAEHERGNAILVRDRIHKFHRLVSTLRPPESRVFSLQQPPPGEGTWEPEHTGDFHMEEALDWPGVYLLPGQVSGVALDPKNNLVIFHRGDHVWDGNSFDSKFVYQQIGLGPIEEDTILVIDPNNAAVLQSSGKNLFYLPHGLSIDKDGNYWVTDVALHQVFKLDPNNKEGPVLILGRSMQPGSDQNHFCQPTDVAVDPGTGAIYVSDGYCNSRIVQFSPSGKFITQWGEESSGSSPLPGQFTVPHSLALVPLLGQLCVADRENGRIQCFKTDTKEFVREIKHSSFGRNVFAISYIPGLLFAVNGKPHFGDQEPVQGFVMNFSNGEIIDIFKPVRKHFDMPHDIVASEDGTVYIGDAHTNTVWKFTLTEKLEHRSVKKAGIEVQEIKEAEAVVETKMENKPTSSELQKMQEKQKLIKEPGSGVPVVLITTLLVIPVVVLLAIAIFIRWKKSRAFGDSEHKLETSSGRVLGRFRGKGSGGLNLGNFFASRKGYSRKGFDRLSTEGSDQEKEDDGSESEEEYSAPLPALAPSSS
Procedure: FIG. 23: Amidating activity in healthy human volunteers before (0 h) and after oral ascorbate uptake measured without addition of exogenous ascorbate. AMA at t=0 h was set as 100%.
Human serum or Li-Heparin plasma from self-reported healthy volunteers was used as source of human native PAM. Each sample (20 μl) was diluted two-fold in 100 mM Tris-HCl in duplicate. The amidation reaction was initiated by addition of 160 μl of PAM-reaction buffer (100 mM Tris-HCl, pH 7.5, 6.25 μM CuSO4, 2.5 mM L-ascorbate, 125 μg/mL catalase, 62.5 μM amastatin, 250 μM leupeptin, 36 ng/mL synthetic ADM-Gly and 375 μg/mL NT-ADM antibody). Afterwards, 100 μl of each individual reaction of duplicated samples were combined and transferred into 20 μl of 200 mM EDTA to terminate the amidation reaction and to generate t=0 minutes reaction time-point followed by incubation at 37° C. for 40 minutes. Afterwards the non-terminated reactions were stopped with 10 μl of 200 mM EDTA. To determine the PAM activity, bio-ADM as reaction product was quantified in each sample using the Sphingotest® bio-ADM immunoassay (Weber et al. 2017). The amidation assay was calibrated using a 6-point calibration curve generated with human recombinant PAM of known activity. Samples and calibrators were treated in the same manner. Relative light units (RLU t40 min-t0 min) determined via Sphingotest® bio-ADM immunoassay for each sample were fitted against the RLU (t40 min-t0 min) of the calibrator to determine the PAM activity in the samples. PAM activity is described as “adrenomedullin maturation activity” (AMA) in μg bio-ADM formed per hour and L of sample.
Healthy volunteers (n=4) received 2000 mg of vitamin C (Dr. Scheffler, Additiva® Vitamin C) as an oral single dose. Blood sampling was performed prior to- and 1, 2 and 3 hours post administration. Basal amidating activity was determined from Li-heparin plasma and serum as described in example 3 in absence of exogenous ascorbate addition and is shown in FIG. 23.

[3] = molecular target: T3, adrenomedullin-Gly (ADM-Gly), P35318
T3 chain: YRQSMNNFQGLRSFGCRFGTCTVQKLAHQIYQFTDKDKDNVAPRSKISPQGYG

native human PAM in human plasma or serum
formation of bio-ADM (Sphingotest bio-ADM immunoassay) in human Li-Heparin plasma [1]: When ADM-Gly was added to the sample, a linear formation of bio-ADM was detected within 90 minutes | formation of bio-ADM from endogenous ADM-Gly in human Li-Heparin plasma [1]: endogenous human PAM enzyme is capable of the conversion of endogenous human ADM-Gly to bioADM in a time-dependent manner

O=C1O[C@H]([C@@H](O)CO)C(O)=C1O [Ascorbate, vitamin C, reference compound]
PAM activity compared to placebo group (PAM activity; 120 min past injection): comparable to PAM activity in the placebo group | time of maximal elevation of PAM activity past injection (PAM activity; single i.v. injection): 15 min | elevation of circulating PAM activity (PAM activity; single i.v. injection of 500 μl (PAM 50 μg/mL, ascorbate 40 mg/mL), vs placebo): non-significant elevation | time PAM activity remained elevated after injection (PAM activity; single i.v. injection, significantly elevated for PAM and the combination): 60 min | bio-ADM concentration elevated by the factor (normalized to placebo) (bio-ADM; after 15 min): 1.4 | bio-ADM concentration elevated by the factor (normalized to placebo) (bio-ADM; after 30 min): 1.4 | bio-ADM concentration elevated by the factor (normalized to placebo) (bio-ADM; after 45 min): 1.2 | bio-ADM concentration elevated by the factor (normalized to placebo) (bio-ADM; after 60 min): returned to baseline levels | bio-ADM concentration compared to the Placebo group (bio-ADM; after 120 minutes): not significantly different | PAM activity elevated by the factor compared to prior to ascorbate uptake ([2]; 1 h after uptake): 1.7 | PAM activity elevated by the factor compared to prior to ascorbate uptake ([2]; 2 h post uptake): ~2 | PAM activity elevated by the factor compared to prior to ascorbate uptake ([2]; 3 h post uptake): ~2

B1: recombinant human PAM (peptidylglycine alpha-amidating monooxygenase, amino acids 21-834, C-terminal hexa-histidine tag linked via a GS linker) (protein)
chain: SPLSVFKRFKETTRPFSNECLGTTRPVVPIDSSDFALDIRMPGVTPKQSDTYFCMSMRIPVDEEAFVIDFKPRASMDTVHHMLLFGCNMPSSTGSYWFCDEGTCTDKANILYAWARNAPPTRLPKGVGFRVGGETGSKYFVLQVHYGDISAFRDNNKDCSGVSLHLTRLPQPLIAGMYLMMSVDTVIPAGEKVVNSDISCHYKNYPMHVFAYRVHTHHLGKVVSGYRVRNGQWTLIGRQSPQLPQAFYPVGHPVDVSFGDLLAARCVFTGEGRTEATHIGGTSSDEMCNLYIMYYMEAKHAVSFMTCTQNVAPDMFRTIPPEANIPIPVKSDMVMMHEHHKETEYKDKIPLLQQPKREEEEVLDQGDFYSLLSKLLGEREDVVHVHKYNPTEKAESESDLVAEIANVVQKKDLGRSDAREGAEHERGNAILVRDRIHKFHRLVSTLRPPESRVFSLQQPPPGEGTWEPEHTGDFHMEEALDWPGVYLLPGQVSGVALDPKNNLVIFHRGDHVWDGNSFDSKFVYQQIGLGPIEEDTILVIDPNNAAVLQSSGKNLFYLPHGLSIDKDGNYWVTDVALHQVFKLDPNNKEGPVLILGRSMQPGSDQNHFCQPTDVAVDPGTGAIYVSDGYCNSRIVQFSPSGKFITQWGEESSGSSPLPGQFTVPHSLALVPLLGQLCVADRENGRIQCFKTDTKEFVREIKHSSFGRNVFAISYIPGLLFAVNGKPHFGDQEPVQGFVMNFSNGEIIDIFKPVRKHFDMPHDIVASEDGTVYIGDAHTNTVWKFTLTEKLEHRSVKKAGIEVQEIKEAEAVVGSHHHHHH
bio-ADM synthesis rate [3]: by an averaged factor of 1.8 at each time-point
